Source: patent US12194021B2, “Modified herbal compositions for neuromodulation” (University of Southern California, priority 2021, dated 2025)

Assay: Two-week Functional Observational Battery (FOB)
Format: in vivo, rats
Procedure: The results shown in Table 2 indicate that D-P is the safe compound. During the two weeks, we checked the animals' fur, response to handling, etc. […] We also made sure to observe the animals continuously for 4 hours after each treatment. We mainly focused on any negative changes in the animal's mental behavior, autonomous activity, hair, glandular secretion, feces, death, etc. We found no notable changes with these evaluations.

[1] = female rats, 1 mg/kg oral daily, day0
[2] = female rats, 1 mg/kg oral daily, day3
[3] = female rats, 1 mg/kg oral daily, day5
[4] = female rats, 1 mg/kg oral daily, day8
[5] = female rats, 1 mg/kg oral daily, day10
[6] = female rats, 1 mg/kg oral daily, day12
[7] = female rats, 1 mg/kg oral daily, day14
[8] = female rats, 10 mg/kg oral daily, day0
[9] = female rats, 10 mg/kg oral daily, day3
[10] = female rats, 10 mg/kg oral daily, day5
[11] = female rats, 10 mg/kg oral daily, day8
[12] = female rats, 10 mg/kg oral daily, day10
[13] = female rats, 10 mg/kg oral daily, day12
[14] = female rats, 10 mg/kg oral daily, day14
[15] = female rats, 100 mg/kg oral daily, day0
[16] = female rats, 100 mg/kg oral daily, day3
[17] = female rats, 100 mg/kg oral daily, day5
[18] = female rats, 100 mg/kg oral daily, day8
[19] = female rats, 100 mg/kg oral daily, day10
[20] = female rats, 100 mg/kg oral daily, day12
[21] = female rats, 100 mg/kg oral daily, day14
[22] = male rats, 1 mg/kg oral daily, day0
[23] = male rats, 1 mg/kg oral daily, day3
[24] = male rats, 1 mg/kg oral daily, day5
[25] = male rats, 1 mg/kg oral daily, day8
[26] = male rats, 1 mg/kg oral daily, day10
[27] = male rats, 1 mg/kg oral daily, day12
[28] = male rats, 1 mg/kg oral daily, day14
[29] = male rats, 10 mg/kg oral daily, day0
[30] = male rats, 10 mg/kg oral daily, day3
[31] = male rats, 10 mg/kg oral daily, day5
[32] = male rats, 10 mg/kg oral daily, day8
[33] = male rats, 10 mg/kg oral daily, day10
[34] = male rats, 10 mg/kg oral daily, day12
[35] = male rats, 10 mg/kg oral daily, day14
[36] = male rats, 100 mg/kg oral daily, day0
[37] = male rats, 100 mg/kg oral daily, day3
[38] = male rats, 100 mg/kg oral daily, day5
[39] = male rats, 100 mg/kg oral daily, day8
[40] = male rats, 100 mg/kg oral daily, day10
[41] = male rats, 100 mg/kg oral daily, day12
[42] = male rats, 100 mg/kg oral daily, day14
[43] = rats, oral daily 1, 10 and 100 mg/kg, two weeks

Substance: piperidin-1-ium (2R,3R)-2-(3,4-dihydroxy-5-oxidophenyl)-3,5-dihydroxy-4-oxochroman-7-olate [D-P]
- Breath (B) [1]: 85 ± 0.5 per minute
- Pulse (P) [1]: 366 ± 1.0 beats/minute
- Temperature (T) [1]: 36.5 ± 0.4 °C
- Breath (B) [2]: 85 ± 0.5 per minute
- Pulse (P) [2]: 366 ± 0.4 beats/minute
- Temperature (T) [2]: 36.5 ± 0.3 °C
- Breath (B) [3]: 85 ± 0.4 per minute
- Pulse (P) [3]: 366 ± 1.3 beats/minute
- Temperature (T) [3]: 36.5 ± 1.1 °C
- Breath (B) [4]: 85 ± 0.5 per minute
- Pulse (P) [4]: 366 ± 4.1 beats/minute
- Temperature (T) [4]: 36.5 ± 1.2 °C
- Breath (B) [5]: 85 ± 0.5 per minute
- Pulse (P) [5]: 366 ± 1.0 beats/minute
- Temperature (T) [5]: 36.5 ± 0.4 °C
- Breath (B) [6]: 85 ± 0.5 per minute
- Pulse (P) [6]: 366 ± 7.4 beats/minute
- Temperature (T) [6]: 36.5 ± 0.3 °C
- Breath (B) [7]: 85 ± 0.4 per minute
- Pulse (P) [7]: 366 ± 6.3 beats/minute
- Temperature (T) [7]: 36.5 ± 1.1 °C
- Breath (B) [8]: 86 ± 0.6 per minute
- Pulse (P) [8]: 367 ± 0.5 beats/minute
- Temperature (T) [8]: 36.3 ± 0.6 °C
- Breath (B) [9]: 86 ± 0.5 per minute
- Pulse (P) [9]: 371 ± 2.2 beats/minute
- Temperature (T) [9]: 36.3 ± 0.7 °C
- Breath (B) [10]: 86 ± 0.5 per minute
- Pulse (P) [10]: 369 ± 6.8 beats/minute
- Temperature (T) [10]: 36.3 ± 1.0 °C
- Breath (B) [11]: 86 ± 0.5 per minute
- Pulse (P) [11]: 368 ± 6.1 beats/minute
- Temperature (T) [11]: 36.3 ± 1.2 °C
- Breath (B) [12]: 86 ± 0.6 per minute
- Pulse (P) [12]: 366 ± 6.5 beats/minute
- Temperature (T) [12]: 36.3 ± 0.6 °C
- Breath (B) [13]: 86 ± 0.5 per minute
- Pulse (P) [13]: 367 ± 9.2 beats/minute
- Temperature (T) [13]: 36.3 ± 0.7 °C
- Breath (B) [14]: 86 ± 0.5 per minute
- Pulse (P) [14]: 372 ± 6.8 beats/minute
- Temperature (T) [14]: 36.3 ± 1.0 °C
- Breath (B) [15]: 85 ± 0.6 per minute
- Pulse (P) [15]: 366 ± 9.5 beats/minute
- Temperature (T) [15]: 36.2 ± 0.7 °C
- Breath (B) [16]: 85 ± 0.4 per minute
- Pulse (P) [16]: 364 ± 0.5 beats/minute
- Temperature (T) [16]: 36.2 ± 0.7 °C
- Breath (B) [17]: 85 ± 0.8 per minute
- Pulse (P) [17]: 371 ± 1.5 beats/minute
- Temperature (T) [17]: 36.2 ± 0.7 °C
- Breath (B) [18]: 85 ± 0.6 per minute
- Pulse (P) [18]: 367 ± 1.5 beats/minute
- Temperature (T) [18]: 36.2 ± 0.9 °C
- Breath (B) [19]: 85 ± 0.6 per minute
- Pulse (P) [19]: 369 ± 9.5 beats/minute
- Temperature (T) [19]: 36.2 ± 0.7 °C
- Breath (B) [20]: 85 ± 0.4 per minute
- Pulse (P) [20]: 373 ± 6.5 beats/minute
- Temperature (T) [20]: 36.2 ± 0.7 °C
- Breath (B) [21]: 85 ± 0.8 per minute
- Pulse (P) [21]: 371 ± 4.5 beats/minute
- Temperature (T) [21]: 36.2 ± 0.7 °C
- Breath (B) [22]: 84 ± 0.3 per minute
- Pulse (P) [22]: 367 ± 2.1 beats/minute
- Temperature (T) [22]: 36.1 ± 0.3 °C
- Breath (B) [23]: 85 ± 0.4 per minute
- Pulse (P) [23]: 366 ± 2.5 beats/minute
- Temperature (T) [23]: 36.4 ± 0.7 °C
- Breath (B) [24]: 85 ± 0.5 per minute
- Pulse (P) [24]: 366 ± 1.5 beats/minute
- Temperature (T) [24]: 36.5 ± 0.5 °C
- Breath (B) [25]: 85 ± 0.5 per minute
- Pulse (P) [25]: 366 ± 1.3 beats/minute
- Temperature (T) [25]: 36.4 ± 1.0 °C
- Breath (B) [26]: 85 ± 0.3 per minute
- Pulse (P) [26]: 366 ± 0.2 beats/minute
- Temperature (T) [26]: 36.5 ± 0.3 °C
- Breath (B) [27]: 85 ± 0.5 per minute
- Pulse (P) [27]: 366 ± 1.5 beats/minute
- Temperature (T) [27]: 36.5 ± 0.5 °C
- Breath (B) [28]: 85 ± 0.5 per minute
- Pulse (P) [28]: 366 ± 1.5 beats/minute
- Temperature (T) [28]: 36.5 ± 0.5 °C
- Breath (B) [29]: 86 ± 0.2 per minute
- Pulse (P) [29]: 366 ± 5.2 beats/minute
- Temperature (T) [29]: 36.5 ± 0.5 °C
- Breath (B) [30]: 86 ± 0.6 per minute
- Pulse (P) [30]: 370 ± 0.5 beats/minute
- Temperature (T) [30]: 36.4 ± 0.6 °C
- Breath (B) [31]: 86 ± 0.5 per minute
- Pulse (P) [31]: 374 ± 0.5 beats/minute
- Temperature (T) [31]: 36.5 ± 0.5 °C
- Breath (B) [32]: 86 ± 0.5 per minute
- Pulse (P) [32]: 370 ± 1.9 beats/minute
- Temperature (T) [32]: 36.4 ± 1.1 °C
- Breath (B) [33]: 86 ± 0.2 per minute
- Pulse (P) [33]: 372 ± 6.2 beats/minute
- Temperature (T) [33]: 36.5 ± 0.5 °C
- Breath (B) [34]: 86 ± 0.5 per minute
- Pulse (P) [34]: 373 ± 4.5 beats/minute
- Temperature (T) [34]: 36.5 ± 0.5 °C
- Breath (B) [35]: 86 ± 0.5 per minute
- Pulse (P) [35]: 371 ± 7.5 beats/minute
- Temperature (T) [35]: 36.5 ± 0.5 °C
- Breath (B) [36]: 86 ± 0.5 per minute
- Pulse (P) [36]: 371 ± 0.6 beats/minute
- Temperature (T) [36]: 36.4 ± 1.0 °C
- Breath (B) [37]: 86 ± 0.3 per minute
- Pulse (P) [37]: 365 ± 8.1 beats/minute
- Temperature (T) [37]: 36.3 ± 0.7 °C
- Breath (B) [38]: 86 ± 0.3 per minute
- Pulse (P) [38]: 367 ± 0.9 beats/minute
- Temperature (T) [38]: 36.4 ± 0.8 °C
- Breath (B) [39]: 86 ± 0.5 per minute
- Pulse (P) [39]: 365 ± 9.5 beats/minute
- Temperature (T) [39]: 36.3 ± 1.5 °C
- Breath (B) [40]: 86 ± 0.5 per minute
- Pulse (P) [40]: 368 ± 8.7 beats/minute
- Temperature (T) [40]: 36.4 ± 1.0 °C
- Breath (B) [41]: 86 ± 0.3 per minute
- Pulse (P) [41]: 371 ± 5.9 beats/minute
- Temperature (T) [41]: 36.4 ± 0.8 °C
- Breath (B) [42]: 86 ± 0.3 per minute
- Pulse (P) [42]: 369 ± 5.9 beats/minute
- Temperature (T) [42]: 36.4 ± 0.8 °C
- FOB overall observation [43]: did not find any notable negative changes
- deaths or injuries [43]: No deaths or injuries
